Reference: patent publication US20170202782A1 (Abraxis BioScience, LLC, priority 2014, published 2017)

Tests used:
Bcl-w = biological target: T1, Bcl-w (Homo sapiens, UniProt Q92843); conditions: cited from earlier work
T1 sequence (Q92843 1-193): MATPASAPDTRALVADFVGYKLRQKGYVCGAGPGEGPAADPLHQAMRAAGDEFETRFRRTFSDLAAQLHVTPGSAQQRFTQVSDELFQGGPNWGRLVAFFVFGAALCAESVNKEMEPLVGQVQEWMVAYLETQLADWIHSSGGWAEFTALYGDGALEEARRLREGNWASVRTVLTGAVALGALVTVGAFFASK

[1] = tested on: human pancreatic carcinoma MiaPACA2 xenograft tumors; assay: CIVO arrayed microinjection into xenografted MiaPACA2 tumors, immunofluorescence (CC3, pHH3)
Experimental: Microinjections were performed using the CIVO™ arrayed microinjection device (Presage Biosciences, Seattle Wash.). This device enables simultaneous delivery of multiple drug samples, each individually, directly into spatially defined positions within a living tumor. The CIVO device having a 5 needle array was inserted transcutaneously into flank tumors of anesthetized mice.
24 hours later, tumors were resected and sectioned across the axis of injection to produce histological sections of tumor that show the 5 different sites of injection.
Circular regions of interests (ROI) centered on the injection sites were inscribed. Within each ROI, the fraction of cells expressing CC3 was mapped as a function of radial distance from the injection site. To generate radial response plots, calculations were made at 100 micron intervals and were based on all cells within a 100 micron wide band centered at each radial distance. Measurements began at 200 microns to exclude regions directly affected by needle induced injury.
Tumors from a first set of mice were processed for immunofluorescence analysis with CC3 antibodies 24 hours after injection (FIG. 3A), and tumors from a second set were processed for analysis with CC3 antibodies 48 hours after injection (FIG. 3B). […]

SMILES	Ki (Bcl-w)	CC3 positive cells at the site of injection ([1]; MiaPACA2 tumors, 24 hours, diminished with increasing radial distance (FIG. 2))	synergy with Abraxane in inducing tumor cell death ([1]; solid tumor models, combination with Abraxane (summary statement))
CC1(C)CCC(c2ccc(Cl)cc2)=C(CN2CCN(c3ccc(C(=O)NS(=O)(=O)c4ccc(N[C@H](CCN5CCOCC5)CSc5ccccc5)c(S(=O)(=O)C(F)(F)F)c4)cc3)CC2)C1 [ABT-263]	≤ 1 nM		
CC1(C)CCC(CN2CCN(c3ccc(C(=O)NS(=O)(=O)c4ccc(NCC5CCOCC5)c([N+](=O)[O-])c4)c(Oc4cnc5[nH]ccc5c4)c3)CC2)=C(c2ccc(Cl)cc2)C1 [ABT-199]		increase	not observed
